Source: publication PMC12023841, “Unlocking the Gates: A Novel Diagnostic Molecule for Quantifying Efflux Levels in Gram‐Positive Bacteria” (Advanced Healthcare Materials, 2025)
Entries after “also recorded” stand apart in the source; their conditions may differ. Where two headings read alike, the source gives them in different places.

Legend:
[1] = system: SA 1199 (Wild‐type, basal); assay: MIC, broth microdilution (CLSI); type: cell-based; details: Staphylococcus aureus
[2] = Fluorescence intensity measurement of phenazinium derivatives; type: physicochemical; details: 1 µg mL^−1
Protocol: A stock solution of synthesized phenazinium compounds (10 mg mL^-1) was prepared in DMSO solvent. […] An aliquot (100 μL) of this working stock was then added to the black flat bottomed, half-area, 96-well microplates (CELLSTAR, Greiner Bio-One, France). The plate was then placed on a fluorescence spectrometer (Tecan, Infinite […], Lyon, France) and scanned for emission spectra (560-800 nm) at a constant excitation […].

[3] = system: HaCaT keratinocytes cells; assay: Micronucleus assay; type: cell-based, Human
[4] = Solution‐state stability test in MH‐II broth; type: physicochemical; details: 512–1 µg mL^−1, 37 °C for a day, centrifuged
Protocol: Before accessing the minimal inhibitory concentration (MIC), each phenazinium derivative was subjected to a solution‐state stability test. For this experiment, each derivative was solubilized in DMSO to achieve a primary stock solution (20 mg mL^−1). This stock was further diluted in MilliQ to achieve a working stock solution (10 mg mL^−1). […] The tubes were placed in an incubator at 37 °C for a day and later centrifuged at 25 000 rpm for 25 min.

[5] = system: Staphylococcus aureus ATCC 25923 (Reference, basal); assay: MIC, broth microdilution (CLSI); type: cell-based; details: ATCC25923
[6] = system: Staphylococcus aureus efflux mutants and clinical strains
[7] = 0.025 µg/ml, with UVA/visible Irradiation
[8] = 0.05 µg/ml, with UVA/visible Irradiation
[9] = 0.1 µg/ml, with UVA/visible Irradiation
[10] = 0.25 µg/ml, with UVA/visible Irradiation

CCCCNc1ccc2nc3cc(NCCOC)c(N)cc3[n+](CCC)c2c1 [5a4]
MIC [1]: 2 µg/mL | fluorescence intensity (rank among derivatives) [2]: maximum fluorescence intensity | genotoxicity (in words) [3]: no clear genotoxicity | % PI (Proliferative Index) [3, 7]: 99.2% | MNC (micronucleated cells) [3, 7]: 11 ± 1.4 per 1,000 | % PI (Proliferative Index) ([3]; 0.025 µg/ml, without S9 mix): 99.8% | MNC (micronucleated cells) ([3]; 0.025 µg/ml, without S9 mix): 9 ± 1.4 per 1,000 | % PI (Proliferative Index) [3, 8]: 94.6% | MNC (micronucleated cells) [3, 8]: 9 ± 2.1 per 1,000 | % PI (Proliferative Index) ([3]; 0.05 µg/ml, without S9 mix): 88.2% | MNC (micronucleated cells) ([3]; 0.05 µg/ml, without S9 mix): 8.5 ± 0.7 per 1,000 | % PI (Proliferative Index) [3, 9]: 92.1% | MNC (micronucleated cells) [3, 9]: 9.5 ± 0.7 per 1,000 | % PI (Proliferative Index) ([3]; 0.1 µg/ml, without S9 mix): 78.5% | MNC (micronucleated cells) ([3]; 0.1 µg/ml, without S9 mix): 11 ± 1.4 per 1,000 | % PI (Proliferative Index) [3, 10]: 89.2% | MNC (micronucleated cells) [3, 10]: 11.5 ± 2.1 per 1,000 | % PI (Proliferative Index) ([3]; 0.25 µg/ml, without S9 mix): 56.1% | MNC (micronucleated cells) ([3]; 0.25 µg/ml, without S9 mix): 10 ± 1.4 per 1,000 | % PI (Proliferative Index) ([3]; 0.5 µg/ml, with UVA/visible Irradiation): TOXIC | % PI (Proliferative Index) ([3]; 0.5 µg/ml, without S9 mix): TOXIC | MNC (micronucleated cells) ([3]; 0.5 µg/ml, without S9 mix): TOXIC | phototoxicity (in words) ([3]; UVA/visible light exposure): Slight phototoxicity | Solution state stability (concentration at which visible precipitation was observed) [4]: excellent solubility and stability; also recorded: Stable | MIC [5]: 2 µg/mL | Efflux detection method 5a4 (S. epidermidis strains; […]): Negative | Efflux detection method 5a4 (S. epidermidis strains; strain ATCC12228): Negative | Efflux detection method 5a4 (S. epidermidis strains; strain ATCC12228_EtBr): Positive | Efflux detection method 5a4 (S. epidermidis strains; strain BIOS-V24): Negative | Efflux detection method 5a4 (S. epidermidis strains; strain BIOS-V282): Positive | Efflux detection method 5a4 ([6]; strain ATCC25923): Negative | Efflux detection method 5a4 ([6]; strain ATCC25923_EtBr): Positive | Efflux detection method 5a4 ([6]; strain BIOS-H1): Negative | Efflux detection method 5a4 ([6]; strain BIOS-H2): Negative | Efflux detection method 5a4 ([6]; strain BIOS-H3): Negative | Efflux detection method 5a4 ([6]; strain BIOS-H5): Negative | Efflux detection method 5a4 ([6]; strain BIOS-H6): Negative | Efflux detection method 5a4 ([6]; strain BIOS-H12): Negative | Efflux detection method 5a4 ([6]; strain BIOS-H13): Negative | Efflux detection method 5a4 ([6]; strain BIOS-H17): Negative | Efflux detection method 5a4 ([6]; strain BIOS-H20): Negative | Efflux detection method 5a4 ([6]; strain BIOS-H21): Negative | Efflux detection method 5a4 ([6]; strain BIOS-H22): Negative | Efflux detection method 5a4 ([6]; strain BIOS-H25): Negative | Efflux detection method 5a4 ([6]; strain BIOS-H28): Negative | Efflux detection method 5a4 ([6]; strain BIOS-H29): Negative | Efflux detection method 5a4 ([6]; strain BIOS-H30): Negative | Efflux detection method 5a4 ([6]; strain BIOS-H32): Negative | Efflux detection method 5a4 ([6]; strain BIOS-V21): Negative | Efflux detection method 5a4 ([6]; strain BIOS-V31): Negative | Efflux detection method 5a4 ([6]; strain BIOS-V60): Negative | Efflux detection method 5a4 ([6]; strain BIOS-V61): Negative
